# Reference: patent publication EP0188538B1, “TRANSDERMAL DELIVERY OF AZATADINE” (priority 1984, dated 1986)
# Structures can show the parent of a compound that is named as a salt. Where two headings read alike, the source gives them in different places.
# Key:
# rabbits with intact skin [1] = conditions: in vivo
# Excerpt: (§1) The irritation results are reported as either irritating (+) or non-irritating (-), and the penetration results are reported as either good (+) or poor (-). […] Eight young adult New Zealand white rabbits were assigned to two groups. The rabbits were housed in stainless steel cages and maintained under standard laboratory conditions. Each cage was identified with a color coded label indicating the test substance, rabbit number, sex, and study number. Food and water were supplied ad libitum. On the day of dosing, the back of each rabbit was clipped free of hair. […] To prevent removal, the chambers were covered with an orthopedic stockinette and secured by a canvas coat.
# [2] = pH 7.4
# Excerpt: The irritation results are reported as either irritating (+) or non-irritating (-), and the penetration results are reported as either good (+) or poor (-). […] The skin penetration assembly used was similar to that described by Franz (J. Invest. Derm., 64:190, 1975). Excised defatted human skin was stretched across a reservoir containing a phosphate buffer solution . (pH 7.4, 0.02M) in direct contact with the dermal side of the skin. The temperature of this buffer solution was maintained at 37± 0.5°C by circulating water at the appropriate temperature through a jacket which surrounds each assembly. Freshly made preparation was applied to the statum corneum surface. The buffer solution was removed in its entirety and replaced with fresh solution at various time intervals and assayed for azatadine content.
# rabbits with intact skin [3] = test: Screening of antihistamines for dermal irritation (24/72 hour screen, Draize grading); conditions: 24/72 hour dermal irritation screen in rabbits with intact skin; formulation strength as given in the label
# Excerpt: as §1
Compound,Rabbit Dermal Irritation (rabbits with intact skin [1]),also measured
"CN1CCC(=C2c3ccccc3CCc3cccnc32)CC1 [Azatadine, 6,11-diydro-11-(1-methyl-4-piperidylidene)-5H-benzo[5,6]cyclohepta[1,2-b]pyridine]",,dermal irritation and/or sensitization (rabbits with intact skin [1]; rabbit): no dermal irritation and/or sensitization; In Vitro Dermal Penetration [2]: (+)
CN(C)CCOC(c1ccc(Cl)cc1)c1ccccn1 (stereo not shown) [Carbinoxamine maleate],(+),
"CN(C)CCC(c1ccc(Cl)cc1)c1ccccn1 (stereo not shown) [Chlorpheniramine base (patch), Chlorpheniramine]",,Rabbit Dermal Irritation (rabbits with intact skin [3]): (+); In Vitro Dermal Penetration [2]: (+)
CN1CCC(=C2c3ccccc3C=Cc3ccccc32)CC1 [Cyprhoheptadine HCl],,Rabbit Dermal Irritation (rabbits with intact skin [3]): (+)
"CN(C)CC[C@@H](c1ccc(Br)cc1)c1ccccn1 [Dexbrompheniramine (10%), Dexbrompheniramine]",(+),
"CN(C)CC[C@@H](c1ccc(Cl)cc1)c1ccccn1 [Dexchlorpheniramine base, Dexchlorpheniramine]",,Rabbit Dermal Irritation (rabbits with intact skin [3]): (+)
CC(C1=C(CCN(C)C)Cc2ccccc21)c1ccccn1 (stereo not shown) [Dimethindine maleate],(+),
CN1CCC(OC(c2ccccc2)c2ccccc2)CC1 [Diphenylpyraline HCl],(+),
CN(C)CCOC(C)(c1ccccc1)c1ccccn1 (stereo not shown) [Doxylamine succinate],(+),
CC(CN1c2ccccc2Sc2ccccc21)N(C)C (stereo not shown) [Promethazine HCl],(+),
Cc1ccc(/C(=C\CN2CCCC2)c2ccccn2)cc1 [Triprolidine HCl],(+),
